Patent US20160220569A1, “CDK4/6 Inhibitor Dosage Formulations For The Protection Of Hematopoietic Stem And Progenitor Cells During Chemotherapy” (G1 Therapeutics, Inc., priority 2015, published 2016)
Values joined by “and” are separate entries in the source; they are usually repeats but may differ in a detail not shown here. Equal entries are not always repeated. Where two headings read alike, the source gives them in different places.

Assay: Single escalating dose IV infusion pharmacokinetics in healthy volunteers (noncompartmental)
Type: in vivo, human
Settings: for HL_Lambda_z / highest (peak) concentration: individual subjects; for HL_Lambda_z: WinNonlin noncompartmental analysis, in h
Description: Forty-five subjects have enrolled in the study.
Analysis of plasma concentration versus time data for calculation of standard pharmacokinetic (PK) parameters following intravenous infusion administration was conducted using Phoenix WinNonlin version 6.3 using a nominal infusion duration and scheduled blood sampling times. Random subject numbers were assigned by the bioanalytical laboratory to retain the blind.
(§1) Analysis of plasma concentration versus time data for calculation of standard pharmacokinetic (PK) parameters following intravenous infusion administration was conducted using Phoenix WinNonlin version 6.3 using a nominal infusion duration and scheduled blood sampling times.
as §1

[1] = Cohort 2, 12 mg/m^2 IV, r6-8=Subjects 1-3,r10=Mean,r12=Min,r13=Median,r14=Max,r16=Geometric Mean, geometric mean
[2] = Cohort 2, 12 mg/m^2 IV, r6-8=Subjects 1-3,r10=Mean,r12=Min,r13=Median,r14=Max,r16=Geometric Mean, mean
[3] = Cohort 2, 12 mg/m^2 IV, r6-8=Subjects 1-3,r10=Mean,r12=Min,r13=Median,r14=Max,r16=Geometric Mean, median
[4] = Cohort 3, 24 mg/m^2 IV, r6-8=Subjects 1-3,r10=Mean,r12=Min,r13=Median,r14=Max,r16=Geometric Mean, geometric mean
[5] = Cohort 3, 24 mg/m^2 IV, r6-8=Subjects 1-3,r10=Mean,r12=Min,r13=Median,r14=Max,r16=Geometric Mean, maximum
[6] = Cohort 3, 24 mg/m^2 IV, r6-8=Subjects 1-3,r10=Mean,r12=Min,r13=Median,r14=Max,r16=Geometric Mean, mean
[7] = Cohort 3, 24 mg/m^2 IV, r6-8=Subjects 1-3,r10=Mean,r12=Min,r13=Median,r14=Max,r16=Geometric Mean, median
[8] = Cohort 3, 24 mg/m^2 IV, r6-8=Subjects 1-3,r10=Mean,r12=Min,r13=Median,r14=Max,r16=Geometric Mean, minimum
[9] = Cohort 4, 48 mg/m^2 IV, r6-8=Subjects 1-3,r10=Mean,r12=Min,r13=Median,r14=Max,r16=Geometric Mean, geometric mean
[10] = Cohort 4, 48 mg/m^2 IV, r6-8=Subjects 1-3,r10=Mean,r12=Min,r13=Median,r14=Max,r16=Geometric Mean, maximum
[11] = Cohort 4, 48 mg/m^2 IV, r6-8=Subjects 1-3,r10=Mean,r12=Min,r13=Median,r14=Max,r16=Geometric Mean, mean
[12] = Cohort 4, 48 mg/m^2 IV, r6-8=Subjects 1-3,r10=Mean,r12=Min,r13=Median,r14=Max,r16=Geometric Mean, median
[13] = Cohort 4, 48 mg/m^2 IV, r6-8=Subjects 1-3,r10=Mean,r12=Min,r13=Median,r14=Max,r16=Geometric Mean, minimum
[14] = Cohort 5, 96 mg/m^2, 30-minute IV infusion, noncompartmental, subjects 1-6, Mean, Min, Median, Max, Geometric Mean, minimum

Which HL_Lambda_z (Cohort 1, 6 mg/m^2) does the source give for `CN1CCN(c2ccc(Nc3ncc4cc5n(c4n3)C3(CCCCC3)CNC5=O)nc2)CC1` [Compound 1, 2′-((5-(4-methylpiperazin-1-yl)pyridin-2-yl)amino)-7′,8′-dihydro-6′H-spiro[cyclohexane-1,9′-pyrazino[1′,2′:1,5]pyrrolo[2,3-d]pyrimidin]-6′-one] here?
Its HL_Lambda_z is 6.358 and 3.5207 and 4.7366.

And the “highest (peak) concentration” value (Cohort 1, 6 mg/m^2 IV)?
The value was 42.7 ng/mL and 42.9 ng/mL and 60.5 ng/mL.

And the “Clearance (CL)” value (Cohort 1, 6 mg/m^2 IV, mean)?
Its value is 91.4 L/h/m^2.

What about the “volume of distribution at steady state (Vss) averaging” value (“volume of distribution” below) (Cohort 1, 6 mg/m^2 IV, mean) of the same compound?
Its value is 358 L/m^2.

And the HL_Lambda_z (Cohort 2, 12 mg/m^2)?
Its HL_Lambda_z is 7.5562 and 8.8853.

And the “highest (peak) concentration” value (Cohort 2, 12 mg/m^2 IV)?
Its value is 87.4 ng/mL and 136 ng/mL.

What about the “Clearance (CL)” value (Cohort 2, 12 mg/m^2 IV, mean) of the same compound?
Its value is 83.5 L/h/m^2.

What about the “volume of distribution” value (Cohort 2, 12 mg/m^2 IV, mean) of the same compound?
The value was 461 L/m^2.

What about the AUCinf [1] of the same compound?
Its AUCinf is 146 ng·h/mL.

What about the CL [1] of the same compound?
The CL was 82.4 L/h/m^2.

What about the Cmax [1] of the same compound?
Its Cmax is 119 ng/mL.

And the MRTinf [1]?
The MRTinf was 5.51 h.

What about the Tmax [1] of the same compound?
Its Tmax is 23.8 min.

And the Vss [1]?
The Vss was 454 L/m^2.

And the λz [1]?
Its λz is 0.0845 h⁻¹.

What about the CL [2] of the same compound?
Its CL is 83.5 L/h/m^2.

And the Vss [2]?
The Vss was 461 L/m^2.

And the λz [2]?
The λz was 0.0847 h⁻¹.

What about the AUCinf [3] of the same compound?
The AUCinf was 136 ng·h/mL.

What about the CL [3] of the same compound?
The CL was 88.4 L/h/m^2.

And the Cmax [3]?
The Cmax was 136 ng/mL.

What about the MRTinf [3] of the same compound?
Its MRTinf is 5.98 h.

And the Vss [3]?
Its Vss is 405 L/m^2.

And the λz [3]?
Its λz is 0.0844 h⁻¹.

And the HL_Lambda_z (Cohort 3, 24 mg/m^2)?
Its HL_Lambda_z is 13.1458 and 8.6328 and 7.8478.

And the “Clearance (CL)” value (Cohort 3, 24 mg/m^2 IV, mean)?
Its value is 90.7 L/h/m^2.

What about the “volume of distribution” value (Cohort 3, 24 mg/m^2 IV, mean) of the same compound?
Its value is 562 L/m^2.

And the AUClast [4]?
The AUClast was 253 ng·h/mL.

And the Vss [4]?
Its Vss is 550 L/m^2.

What about the λz [4] of the same compound?
Its λz is 0.0720 h⁻¹.

And the AUClast [5]?
The AUClast was 337 ng·h/mL.

What about the Vss [5] of the same compound?
The Vss was 674 L/m^2.

What about the λz [5] of the same compound?
Its λz is 0.0883 h⁻¹.

And the Vss [6]?
The Vss was 562 L/m^2.

What about the λz [6] of the same compound?
Its λz is 0.0738 h⁻¹.

And the AUClast [7]?
The AUClast was 259 ng·h/mL.

And the Vss [7]?
The Vss was 599 L/m^2.

What about the λz [7] of the same compound?
The λz was 0.0803 h⁻¹.

What about the AUClast [8] of the same compound?
The AUClast was 186 ng·h/mL.

What about the Vss [8] of the same compound?
The Vss was 412 L/m^2.

And the λz [8]?
Its λz is 0.0527 h⁻¹.

And the HL_Lambda_z (Cohort 4, 48 mg/m^2)?
The HL_Lambda_z was 10.9028 and 7.2383 and 8.5525.

And the “Clearance (CL)” value (Cohort 4, 48 mg/m^2 IV, mean)?
The value was 96.5 L/h/m^2.

What about the “volume of distribution” value (Cohort 4, 48 mg/m^2 IV, mean) of the same compound?
The value was 771 L/m^2.

And the Tmax (Cohort 4, 48 mg/m^2 IV, r6-8=Subjects 1-3,r10=Mean,r12=Min,r13=Median,r14=Max,r16=Geometric Mean)?
Its Tmax is 15 min.

And the AUCinf [9]?
The AUCinf was 498 ng·h/mL.

What about the AUClast [9] of the same compound?
Its AUClast is 452 ng·h/mL.

What about the CL [9] of the same compound?
Its CL is 96.4 L/h/m^2.

And the MRTinf [9]?
Its MRTinf is 7.83 h.

And the Tmax [9]?
The Tmax was 23.8 min.

What about the Vss [9] of the same compound?
The Vss was 754 L/m^2.

And the λz [9]?
The λz was 0.0790 h⁻¹.

What about the AUCinf [10] of the same compound?
Its AUCinf is 524 ng·h/mL.

What about the AUClast [10] of the same compound?
The AUClast was 480 ng·h/mL.

And the CL [10]?
Its CL is 105 L/h/m^2.

What about the Cmax [10] of the same compound?
The Cmax was 228 ng/mL.

And the MRTinf [10]?
The MRTinf was 10.7 h.

And the Vss [10]?
The Vss was 995 L/m^2.

And the λz [10]?
The λz was 0.0958 h⁻¹.

What about the CL [11] of the same compound?
Its CL is 96.5 L/h/m^2.

What about the Vss [11] of the same compound?
Its Vss is 771 L/m^2.

And the λz [11]?
Its λz is 0.0801 h⁻¹.

And the AUCinf [12]?
The AUCinf was 514 ng·h/mL.

What about the AUClast [12] of the same compound?
The AUClast was 441 ng·h/mL.

And the CL [12]?
The CL was 93.3 L/h/m^2.

And the Cmax [12]?
The Cmax was 227 ng/mL.

And the MRTinf [12]?
Its MRTinf is 7.80 h.

And the Vss [12]?
Its Vss is 715 L/m^2.

What about the λz [12] of the same compound?
The λz was 0.0810 h⁻¹.

What about the AUCinf [13] of the same compound?
The AUCinf was 459 ng·h/mL.

What about the AUClast [13] of the same compound?
Its AUClast is 437 ng·h/mL.

And the CL [13]?
Its CL is 91.7 L/h/m^2.

And the MRTinf [13]?
Its MRTinf is 5.76 h.

And the Tmax [13]?
Its Tmax is 15 min.

And the Vss [13]?
Its Vss is 603 L/m^2.

What about the λz [13] of the same compound?
The λz was 0.0636 h⁻¹.

And the AUClast (Cohort 5, 96 mg/m^2, 30-minute IV infusion, noncompartmental, subjects 1-6, Mean, Min, Median, Max, Geometric Mean, mean)?
Its AUClast is 1240 ng·h/mL.

And the AUClast [14]?
Its AUClast is 1040 ng·h/mL.

What about the Tmax [14] of the same compound?
Its Tmax is 15 min.

And the maximum mean concentration (Cohort 5, 96 mg/m^2 IV, at the end of infusion (EOI))?
Its maximum mean concentration is 874 ng/mL.

What about the “Clearance (CL)” value (Cohort 5, 96 mg/m^2 IV, mean) of the same compound?
Its value is 74 L/h/m^2.

What about the “volume of distribution” value (Cohort 5, 96 mg/m^2 IV, mean) of the same compound?
Its value is 429 L/m^2.

What about the HL_Lambda_z (Cohort 5, received 96 mg/m^2) of the same compound?
Its HL_Lambda_z is 8.4971 and 10.9427 and 7.5378 and 10.6557 and 7.1128 and 6.9746.

And the “Clearance (CL)” value (Cohort 6, […]^2 IV, mean)?
Its value is 62.1 L/h/m^2.

And the “volume of distribution” value (Cohort 6, […]^2 IV, mean)?
The value was 547 L/m^2.

And the AUC(0-inf) (both sexes, human, plasma, iv, 6 mg/m2, Cohort 1, 6 mg/m^2 IV, mean, read-out: AUCinf averaged)?
Its AUC(0-inf) is 67.7 ng·h/mL.

And the Cmax (both sexes, human, plasma, iv, 6 mg/m2, Cohort 1, 6 mg/m^2 IV, mean, read-out: Cmax averaged)?
The Cmax was 50.9 ng/mL.

What about the Tmax (both sexes, human, plasma, iv, 6 mg/m2, Cohort 1, 6 mg/m^2 IV, mean, read-out: Tmax) of the same compound?
Its Tmax is 19.8 min.

And the half-life (both sexes, human, plasma, iv, 6 mg/m2, Cohort 1, 6 mg/m^2 IV, mean, read-out: average half-life (converted))?
Its half-life is 292 min.

What about the MRT inf (both sexes, human, plasma, iv, 6 mg/m2, Cohort 1, 6 mg/m^2 IV, r6-8=Subjects 1-3,r10=Mean,r12=Min,r13=Median,r14=Max,r16=Geometric Mean) of the same compound?
Its MRT inf is 4.18 h.

What about the AUC(0-inf) (both sexes, human, plasma, iv, 6 mg/m2, Cohort 1, 6 mg/m^2 IV, r6-8=Subjects 1-3,r10=Mean,r12=Min,r13=Median,r14=Max,r16=Geometric Mean, read-out: AUCinf) of the same compound?
The AUC(0-inf) was 67.7 ng·h/mL.

And the Cmax (both sexes, human, plasma, iv, 6 mg/m2, Cohort 1, 6 mg/m^2 IV, r6-8=Subjects 1-3,r10=Mean,r12=Min,r13=Median,r14=Max,r16=Geometric Mean, read-out: Cmax)?
The Cmax was 50.9 ng/mL.

And the Tmax (both sexes, human, plasma, iv, 6 mg/m2, Cohort 1, 6 mg/m^2 IV, r6-8=Subjects 1-3,r10=Mean,r12=Min,r13=Median,r14=Max,r16=Geometric Mean, read-out: Tmax)?
Its Tmax is 20 min.

And the half-life (both sexes, human, plasma, iv, 6 mg/m2, Cohort 1, 6 mg/m^2 IV, r6-8=Subjects 1-3,r10=Mean,r12=Min,r13=Median,r14=Max,r16=Geometric Mean, read-out: t½ (converted))?
The half-life was 292 min.
